Measured values: ChEMBL document CHEMBL4251606, “Design and characterization of α-lipoic acyl shikonin ester twin drugs as tubulin and PDK1 dual inhibitors” (Eur J Med Chem, 2018)
Activity calls are given as the source filed them. No cut-off for these calls is given here.

How the values were obtained:
[1] = tested on: HeLa; test: Induction of apoptosis in human HeLa cells assessed as necrotic cells at 1 uM after 24 hrs by Annexin V-APC/propidium iodide staining-based FACScan flow cytometric analysis (reference value: 1.18%); format: functional
[2] = species on record: Homo sapiens; test: Inhibition of microtubule polymerization (unknown origin) at 4 uM after 24 hrs by immunoblot
[3] = tested on: HeLa; test: Cell cycle arrest in human HeLa cells assessed as accumulation of cells at G2/M phase at 4 uM after 24 hrs by propidium iodide staining-based FACScan flow cytometric analysis (reference value: 16.82%); format: functional
[4] = tested on: HepG2; test: Antiproliferative activity against human HepG2 cells after 24 hrs by MTT assay; format: functional, cell-based; details: HepG2, 24 h
[5] = tested on: HeLa; test: Inhibition of microtubule polymerization in human HeLa cells at 4 uM after 24 hrs by rhodamine/DAPI staining-based confocal microscopic analysis; format: cell-based
[6] = tested on: HeLa; test: Induction of apoptosis in human HeLa cells assessed as early apoptotic cells at 4 uM after 24 hrs by Annexin V-APC/propidium iodide staining-based FACScan flow cytometric analysis (reference value: 6.46%); format: functional

inhibition [2]: Active
IC50 [4]: 5.37 µM
SMILES: CC(C)=CC[C@@H](OC(=O)CCCC[C@@H]1CCSC(c2ccccc2)S1)C1=CC(=O)c2c(O)ccc(O)c2C1=O (stereo partly specified)
Activity [1]: 4.46%
Activity [3]: 45.2%
inhibition [5]: Active
Activity [6]: 6.67%
